The source of these data is patent publication US7491794B2, “Macrocyclic compounds as inhibitors of viral replication” (Intermune, Inc., priority 2003, dated 2009).

By IC50 is commonly meant the concentration that gives 50% inhibition. Read a high IC50 as a need for much substance.

In the test the target is T1, NS3-NS4 protease (Hepatitis C virus genotype 1a, UniProt P27958).
T1 construct: Recombinant E. coli or Baculovirus full-length NS3 was diluted to 3.33 μM with assay buffer; made in house; host or cells: E. coli or baculovirus (BV) system
T1 sequence (P27958 1027-1657): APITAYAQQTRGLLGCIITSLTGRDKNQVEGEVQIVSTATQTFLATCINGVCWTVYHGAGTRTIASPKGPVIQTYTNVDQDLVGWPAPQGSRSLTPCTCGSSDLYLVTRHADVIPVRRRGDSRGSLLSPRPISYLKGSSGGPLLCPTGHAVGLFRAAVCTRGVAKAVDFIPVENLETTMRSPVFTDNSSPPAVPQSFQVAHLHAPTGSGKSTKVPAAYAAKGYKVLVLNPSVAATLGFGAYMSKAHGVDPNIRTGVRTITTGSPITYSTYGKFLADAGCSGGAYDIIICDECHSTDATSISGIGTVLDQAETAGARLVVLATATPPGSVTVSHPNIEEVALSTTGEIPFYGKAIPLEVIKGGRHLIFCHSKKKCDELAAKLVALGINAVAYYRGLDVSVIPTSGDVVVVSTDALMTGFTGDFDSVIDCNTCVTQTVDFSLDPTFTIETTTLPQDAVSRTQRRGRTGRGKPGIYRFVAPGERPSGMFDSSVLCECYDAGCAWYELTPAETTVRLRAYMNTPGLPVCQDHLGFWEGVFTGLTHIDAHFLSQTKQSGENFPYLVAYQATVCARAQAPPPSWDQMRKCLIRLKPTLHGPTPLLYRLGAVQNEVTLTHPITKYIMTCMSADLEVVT
The experiment in a line: NS3-NS4 protease assay / NS3 inhibition assay, Section D. It is filed as biochemical. The procedure: NS3-NS4 Protease Assay NS3 complex formation with NS4A-2.
Recombinant E. coli or Baculovirus full-length NS3 was diluted to 3.33 μM with assay buffer and transferred material to an eppendorf tube and place in water bath in 4° C. refrigerator. The appropriate amount of NS4A-2 to 8.3 mM in assay buffer was added to equal the volume of NS3 in step 2.1.1 (conversion factor −3.8 mg/272 μL assay buffer). The material was transferred to an eppendorf tube and place in water bath in 4° C. refrigerator.
After equilibration to 4° C., equal volumes of NS3 and NS4A-2 solutions were combined in an eppendorf tube, mix gently with a manual pipettor, and incubate mixture for 15 minutes in the 4° C. water bath. Final concentrations in the mixture are 1.67 μM NS3, 4.15 mM NS4A-2 (2485-fold molar excess NS4A-2).
After 15 minutes at 4° C., the NS3/NS4A-2 eppendorf tube was removed and placed in a room temperature water bath for 10 minutes. NS3/NS4A-2 was alliquoted at appropriate volumes and store at −80° C. (E. coli NS3 run at 2 nM in assay, aliquot at 25 μL. BV NS3 run at 3 nM in assay, aliquot at 30 μL).
Sample compounds were dissolved to 10 mM in DMSO then diluted to 2.5 mM (1:4) in DMSO.
The E. coli. NS3/NS4A-2 was diluted to 4 nM NS3 (1:417.5 of 1.67 μM stock−18 μL 1.67 μM stock+7497 μL assay buffer).
The BV NS3/NS4A-2 was diluted to 6 nM NS3 (1:278.3 of 1.67 μM stock−24 μL 1.67 μM stock+6655 μL assay buffer).
Using the manual multichannel pipettor, careful not to introduce bubbles into the plate, add 50 μL assay buffer to wells A01-H01 of a black Costar 96-well polypropylene storage plate.
Using the manual multichannel pipettor, careful not to introduce bubbles into the plate, add 50 μL of diluted NS3/NS4A-2 from step 2.2.6 to wells A02-H12 of plate in step 2.2.7.
Using the manual multichannel pipettor, careful not to introduce bubbles into the plate, transfer 25 μL of the wells in drug dilution plate in step 2.2.5 to corresponding wells in assay plate in step 2.2.8. Change tips on multichannel pipettor for each row of compounds transferred.
Using the manual multichannel pipettor, careful not to introduce bubbles into the plate, mix the wells from the assay plate in step 2.2.9 by aspirating and dispensing 35 μL of the 75 μL in each well five times. Change tips on multichannel pipettor for each row of wells mixed.
Cover plate with a polystyrene plate lid and pre-incubate the plate from step 2.2.10 containing NS3 protease and sample compounds 10 minutes at room temperature.
While plate from step 2.2.11 is pre-incubating, dilute RETS1 substrate in a 15 mL polypropylene centrifuge tube.
Dilute RETS1 substrate to 8 μM (1:80.75 of 646 μM stock−65 μL 646 μM stock+5184 μL assay buffer).
After the plate in step is done pre-incubating, and using the manual multichannel, add 25 μL of substrate to all wells on the plate. Quickly mix the plate as in step 2.2.10, mixing 65 μL of the 100 μL in the wells.
Read the plate in kinetic mode on the Molecular Devices SpectraMax Gemini XS plate reader. Reader settings: Read time: 30 minutes, Interval: 36 seconds, Reads: 51, Excitation k: 335 nm, Emission k: 495 nm, cutoff: 475 nm, Automix: off, Calibrate: once, PMT: high, Reads/well: 6, Vmax pts: 21 or 28/51 depending on length of linearity of reaction.
IC50s are determined using a four parameter curve fit equation, and converted to Ki's using the following Km's:
where Ki=IC50/(1+[S]/Km))
As to `CC(C)(C)OC(=O)N[C@H]1CCCCC/C=C\[C@@H]2C[C@@]2(C(=O)NS(=O)(=O)C2CC2)NC(=O)[C@@H]2C[C@@H](NC(=O)c3cccc(C#N)c3)CN2C1=O` [Example 10], the IC50 is under 100 nM.

The compound `CC(C)(C)OC(=O)N[C@H]1CCCCC/C=C\[C@@H]2C[C@@]2(C(=O)NS(=O)(=O)C2CC2)NC(=O)[C@@H]2C[C@@H](NC(=O)c3ccccc3)CN2C1=O` [Example 2] had an IC50 of under 100 nM.

Compound `COc1ccc(C(=O)N[C@@H]2C[C@H]3C(=O)N[C@]4(C(=O)O)C[C@H]4/C=C\CCCCC[C@H](NC(=O)OC(C)(C)C)C(=O)N3C2)cc1` [Example 61] gave a half-inhibitory concentration (IC50) of under 10000 nM.

Compound `CC(C)(C)OC(=O)N[C@H]1CCCCC/C=C\[C@@H]2C[C@@]2(C(=O)NS(=O)(=O)C2CC2)NC(=O)[C@@H]2C[C@@H](NC(=O)c3ccc4cc[nH]c4c3)CN2C1=O` [Example 38] displayed an IC50 of under 100 nM.

`CC(C)(C)OC(=O)N[C@H]1CCCCC/C=C\[C@@H]2C[C@@]2(C(=O)NS(=O)(=O)C2CC2)NC(=O)[C@@H]2C[C@@H](NC(=O)c3cnn(-c4ccccc4)c3C(F)(F)F)CN2C1=O` [Example 21] registered an IC50 of under 100 nM.

Regarding `CN(C)c1ccc(C(=O)N[C@@H]2C[C@H]3C(=O)N[C@]4(C(=O)NS(=O)(=O)C5CC5)C[C@H]4/C=C\CCCCC[C@H](NC(=O)OC(C)(C)C)C(=O)N3C2)cc1` [Example 11], the IC50 is under 100 nM.

With `CC(C)(C)OC(=O)N[C@H]1CCCCC/C=C\[C@@H]2C[C@@]2(C(=O)NS(=O)(=O)C2CC2)NC(=O)[C@@H]2C[C@@H](NC(=O)c3ccc(C#N)cc3)CN2C1=O` [Example 9], the IC50 is under 100 nM.

`COc1cccc(C(=O)N[C@@H]2C[C@H]3C(=O)N[C@]4(C(=O)NS(=O)(=O)C5CC5)C[C@H]4/C=C\CCCCC[C@H](NC(=O)OC(C)(C)C)C(=O)N3C2)c1` [Example 7] gave an IC50 of under 100 nM.

Consider `CC(C)Nc1nc(C(=O)N[C@@H]2C[C@H]3C(=O)N[C@]4(C(=O)NS(=O)(=O)C5CC5)C[C@H]4/C=C\CCCCC[C@H](NC(=O)OC(C)(C)C)C(=O)N3C2)cs1` [Example 12], for which the IC50 was under 100 nM.

With `COc1ccc(C(=O)N[C@@H]2C[C@H]3C(=O)N[C@]4(C(=O)O)C[C@H]4/C=C\CCCCC[C@H](NC(=O)OC(C)(C)C)C(=O)N3C2)cc1C(F)(F)F` [Example 69], the IC50 is under 10000 nM.

As for `CC(C)(C)OC(=O)N[C@H]1CCCCC/C=C\[C@@H]2C[C@@]2(C(=O)NS(=O)(=O)C2CC2)NC(=O)[C@@H]2C[C@@H](NC(=O)c3cc4ccccc4s3)CN2C1=O` [Example 43], the IC50 is under 100 nM.

As for `CC(C)(C)OC(=O)N[C@H]1CCCCC/C=C\[C@@H]2C[C@@]2(C(=O)NS(=O)(=O)C2CC2)NC(=O)[C@@H]2C[C@@H](NC(=O)c3cc4ccccc4[nH]3)CN2C1=O` [Example 31], the IC50 was under 100 nM.

Compound `COc1ccc(C(=O)N[C@@H]2C[C@H]3C(=O)N[C@]4(C(=O)NS(=O)(=O)C5CC5)C[C@H]4/C=C\CCCCC[C@H](NC(=O)OC4CCCC4)C(=O)N3C2)cc1C(F)(F)F` [Example 57] came in with an IC50 of under 100 nM.

`CC(C)(C)OC(=O)N[C@H]1CCCCC/C=C\[C@@H]2C[C@@]2(C(=O)O)NC(=O)[C@@H]2C[C@@H](NC(=O)c3ccc4ccccc4c3)CN2C1=O` [Example 62] yielded an IC50 of under 1000 nM.

In the case of `CC(C)(C)NC(=O)N[C@H]1CCCCC/C=C\[C@@H]2C[C@@]2(C(=O)NS(=O)(=O)C2CC2)NC(=O)[C@@H]2C[C@@H](NC(=O)c3sc4ccccc4c3Cl)CN2C1=O` [Example 49], the IC50 was under 100 nM.

In the case of `CC(C)(C)OC(=O)N[C@H]1CCCCC/C=C\[C@@H]2C[C@@]2(C(=O)O)NC(=O)[C@@H]2C[C@@H](NC(=O)c3sc4cc(F)ccc4c3Cl)CN2C1=O` [Example 65], the IC50 is under 1000 nM.

In turn, `CC(C)(C)CC(=O)N[C@H]1CCCCC/C=C\[C@@H]2C[C@@]2(C(=O)NS(=O)(=O)C2CC2)NC(=O)[C@@H]2C[C@@H](NC(=O)c3sc4ccccc4c3Cl)CN2C1=O` [Example 51] yielded an IC50 of under 100 nM.

Regarding `CC(C)(C)OC(=O)N[C@H]1CCCCC/C=C\[C@@H]2C[C@@]2(C(=O)NS(=O)(=O)C2CC2)NC(=O)[C@@H]2C[C@@H](NC(=O)c3ccc(N4CCOCC4)nc3)CN2C1=O` [Example 14], the IC50 is under 100 nM.

Take `CC(C)(C)OC(=O)N[C@H]1CCCCC/C=C\[C@@H]2C[C@@]2(C(=O)NS(=O)(=O)C2CC2)NC(=O)[C@@H]2C[C@@H](NC(=O)c3ccc(-c4ccc(Cl)cc4)o3)CN2C1=O` [Example 22]: the IC50 is under 100 nM.

As for `CC(C)(C)OC(=O)N[C@H]1CCCCC/C=C\[C@@H]2C[C@@]2(C(=O)NS(=O)(=O)C2CC2)NC(=O)[C@@H]2C[C@@H](NC(=O)c3cnc4ccccc4n3)CN2C1=O` [Example 30], the IC50 was under 100 nM.

Regarding `COc1ccc2oc(C(=O)N[C@@H]3C[C@H]4C(=O)N[C@]5(C(=O)NS(=O)(=O)C6CC6)C[C@H]5/C=C\CCCCC[C@H](NC(=O)OC(C)(C)C)C(=O)N4C3)cc2c1` [Example 41], the IC50 is under 100 nM.

`CC(C)(C)OC(=O)N[C@H]1CCCCC/C=C\[C@@H]2C[C@@]2(C(=O)NS(=O)(=O)C2CC2)NC(=O)[C@@H]2C[C@@H](NC(=O)c3ccc(-c4ccccc4)cc3)CN2C1=O` [Example 19] registered an IC50 of under 100 nM.

`CC(C)(C)OC(=O)N[C@H]1CCCCC/C=C\[C@@H]2C[C@@]2(C(=O)NS(=O)(=O)C2CC2)NC(=O)[C@@H]2C[C@@H](NC(=O)c3ccc(F)c(F)c3)CN2C1=O` [Example 15] registered an IC50 of under 100 nM.

Take `CC(C)(C)NC(=O)N[C@H]1CCCCC/C=C\[C@@H]2C[C@@]2(C(=O)NS(=O)(=O)C2CC2)NC(=O)[C@@H]2C[C@@H](NC(=O)c3cc4ccccc4s3)CN2C1=O` [Example 54]: the IC50 was under 100 nM.

In turn, `CC(C)(C)OC(=O)N[C@H]1CCCCC/C=C\[C@@H]2C[C@@]2(C(=O)NS(=O)(=O)C2CC2)NC(=O)[C@@H]2C[C@@H](NC(=O)c3nc4ccccc4[nH]3)CN2C1=O` [Example 47] had an IC50 of under 100 nM.

Turning to `CC(CC(=O)N[C@H]1CCCCC/C=C\[C@@H]2C[C@@]2(C(=O)NS(=O)(=O)C2CC2)NC(=O)[C@@H]2C[C@@H](NC(=O)c3sc4ccccc4c3Cl)CN2C1=O)C(F)(F)F` (stereo partly drawn) [Example 53], the half-inhibitory concentration (IC50) was under 100 nM.

As to `CC(C)(C)OC(=O)N[C@H]1CCCCC/C=C\[C@@H]2C[C@@]2(C(=O)NS(=O)(=O)C2CC2)NC(=O)[C@@H]2C[C@@H](NC(=O)c3sc4cc(F)ccc4c3Cl)CN2C1=O` [Example 44], the IC50 is under 100 nM.

For the compound `CC(C)(C)OC(=O)N[C@H]1CCCCC/C=C\[C@@H]2C[C@@]2(C(=O)NS(=O)(=O)C2CC2)NC(=O)[C@@H]2C[C@@H](NC(=O)c3csc(-c4ccccc4)n3)CN2C1=O` [Example 24], the IC50 is under 100 nM.

`CC(C)(C)OC(=O)N[C@H]1CCCCC/C=C\[C@@H]2C[C@@]2(C(=O)NS(=O)(=O)C2CC2)NC(=O)[C@@H]2C[C@@H](NC(=O)c3csc(-c4ccc(Cl)cc4)c3)CN2C1=O` [Example 23] returned an IC50 of under 100 nM.

As to `CC(C)(C)OC(=O)N[C@H]1CCCCC/C=C\[C@@H]2C[C@@]2(C(=O)NS(=O)(=O)C2CC2)NC(=O)[C@@H]2C[C@@H](NC(=O)c3ccc(S(N)(=O)=O)cc3)CN2C1=O` [Example 17], the IC50 is under 100 nM.

Regarding `CC(C)(C)OC(=O)N[C@H]1CCCCC/C=C\[C@@H]2C[C@@]2(C(=O)NS(=O)(=O)C2CC2)NC(=O)[C@@H]2C[C@@H](NC(=O)c3cc4cc(Cl)ccc4[nH]3)CN2C1=O` [Example 32], the IC50 was under 100 nM.

Take `CCc1ccc(C(=O)N[C@@H]2C[C@H]3C(=O)N[C@]4(C(=O)O)C[C@H]4/C=C\CCCCC[C@H](NC(=O)OC(C)(C)C)C(=O)N3C2)cc1` [Example 68]: the IC50 was under 10000 nM.

Compound `CC(C)(C)OC(=O)N[C@H]1CCCCC/C=C\[C@@H]2C[C@@]2(C(=O)NS(=O)(=O)C2CC2)NC(=O)[C@@H]2C[C@@H](NC(=O)c3cc4cc(OC(F)(F)F)ccc4[nH]3)CN2C1=O` [Example 36] showed an IC50 of under 100 nM.
